Laboratory results taken from US9718790B2, “Triazine derivative and pharmaceutical composition having an analgesic activity comprising the same” (SHIONOGI & CO., LTD., priority 2010, dated 2017).

target: human P2X3 receptor (Homo sapiens (Human), UniProt P56373); experiment: Evaluation of human P2X3 receptor inhibitory activity (Fluo-3 calcium fluorescence, FDSS 3000, ATP stimulation); format: cell-based; conditions: C6BU-1 cells stably expressing human P2X3 receptor;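 further: stimulus was 50 nM ATP with fluorescence followed for 3 min, and the response per well was peak post-ATP fluorescence divided by the reading at measurement start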
Sequence (P56373 whole entry): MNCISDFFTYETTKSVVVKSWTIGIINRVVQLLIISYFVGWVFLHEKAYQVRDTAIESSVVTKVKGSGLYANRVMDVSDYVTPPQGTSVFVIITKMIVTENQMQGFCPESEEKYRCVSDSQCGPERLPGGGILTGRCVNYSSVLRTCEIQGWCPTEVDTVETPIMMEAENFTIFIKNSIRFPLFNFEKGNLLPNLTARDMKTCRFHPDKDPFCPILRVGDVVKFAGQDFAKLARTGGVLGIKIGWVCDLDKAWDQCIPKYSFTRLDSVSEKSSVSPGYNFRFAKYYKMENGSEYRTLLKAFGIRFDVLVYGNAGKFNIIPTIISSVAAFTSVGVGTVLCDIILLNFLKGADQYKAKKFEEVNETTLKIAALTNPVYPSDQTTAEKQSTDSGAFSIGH

SMILES | IC50
CCOC(=O)C1(Cn2c(=O)[nH]/c(=N\c3ccc(CC(C)C)c(Cl)c3)n(Cc3ccc(C)cc3)c2=O)CC1 [Compound I-1448] | 12 nM
CCOC(=O)CCn1c(=O)[nH]/c(=N\c2ccc(OC(C)C)c(Cl)c2)n(CC2CCC3(CC2)CC3)c1=O [Compound I-1449] | 4 nM
CC(C)Oc1ccc(/N=c2\[nH]c(=O)n(CCC(=O)Nc3ccc(OC(C)C)c(Cl)c3)c(=O)n2CC2CCC3(CC2)CC3)cc1Cl [Compound I-1450] | 448 nM
Cc1ccc(Cn2c(=O)n(CC3(C(=O)O)CC3)c(=O)[nH]/c2=N\c2ccc(CC(C)C)c(Cl)c2)cc1 [Compound I-1451] | 5 nM
COC(=O)[C@@H](C)[C@@H](C)n1c(=O)[nH]/c(=N\c2ccc(OC3CCC3)cc2)n(Cc2ccc(Cl)cc2)c1=O [Compound I-1452] | 14 nM
COC(=O)[C@@H](C)[C@@H](C)n1c(=O)[nH]/c(=N\c2ccc(OC3CCC3)cc2)n(Cc2ccc(C)cc2)c1=O [Compound I-1453] | 13 nM
COC(=O)[C@@H](C)[C@@H](C)n1c(=O)[nH]/c(=N\c2ccc(N3CCCCC3)cc2)n(Cc2ccc(Cl)cc2)c1=O [Compound I-1454] | 23 nM
COC(=O)[C@@H](C)[C@@H](C)n1c(=O)[nH]/c(=N\c2ccc(N3CCCCC3)cc2)n(Cc2ccc(C)cc2)c1=O [Compound I-1455] | 32 nM
C[C@H](C(=O)O)[C@@H](C)n1c(=O)[nH]/c(=N\c2ccc(OC3CCC3)cc2)n(Cc2ccc(Cl)cc2)c1=O [Compound I-1456] | 14 nM
Cc1ccc(Cn2c(=O)n([C@H](C)[C@H](C)C(=O)O)c(=O)[nH]/c2=N\c2ccc(OC3CCC3)cc2)cc1 [Compound I-1457] | 14 nM
C[C@H](C(=O)O)[C@@H](C)n1c(=O)[nH]/c(=N\c2ccc(N3CCCCC3)cc2)n(Cc2ccc(Cl)cc2)c1=O [Compound I-1458] | 25 nM
Cc1ccc(Cn2c(=O)n([C@H](C)[C@H](C)C(=O)O)c(=O)[nH]/c2=N\c2ccc(N3CCCCC3)cc2)cc1 [Compound I-1459] | 34 nM
COC(=O)[C@@H](C)Cn1c(=O)[nH]/c(=N\c2ccc(C3CC3)cc2)n(Cc2ccc(C)cc2)c1=O [Compound I-1460] | 272 nM
CC(C)Oc1ccc(/N=c2\[nH]c(=O)n(CCC(=O)O)c(=O)n2CC2CCC3(CC2)CC3)cc1Cl [Compound I-1461] | 25 nM
Cc1ccc(Cn2c(=O)n(CC(C)(C)C(=O)O)c(=O)[nH]/c2=N\c2ccc(CC(C)C)c(Cl)c2)cc1 [Compound I-1462] | 3 nM
COC(=O)[C@@H](C)Cn1c(=O)[nH]/c(=N\c2ccc(CC(C)C)c(Cl)c2)n(Cc2ccc(C)nc2)c1=O [Compound I-1464] | 70 nM
CCc1oc2ccc(/N=c3\[nH]c(=O)n(C[C@H](C)C(=O)O)c(=O)n3Cc3ccc(Cl)cc3)cc2c1C [Compound I-1465] | 6 nM
CC1Cc2cc(/N=c3\[nH]c(=O)n(C[C@H](C)C(=O)O)c(=O)n3Cc3ccc(Cl)cc3)ccc2O1 (stereo partly shown) [Compound I-1466] | 121 nM
Cc1nc2ccc(/N=c3\[nH]c(=O)n([C@H](C)[C@H](C)C(=O)O)c(=O)n3Cc3ccc(Cl)cc3)cc2s1 [Compound I-1467] | 12 nM
Cc1ccc(Cn2c(=O)n([C@H](C)[C@H](C)C(=O)O)c(=O)[nH]/c2=N\c2ccc3nc(C)sc3c2)cc1 [Compound I-1468] | 10 nM
Cc1nc2ccc(/N=c3\[nH]c(=O)n([C@@H](C)[C@@H](C)C(=O)O)c(=O)n3Cc3ccc(Cl)cc3)cc2s1 [Compound I-1469] | 9 nM
Cc1ccc(Cn2c(=O)n([C@@H](C)[C@@H](C)C(=O)O)c(=O)[nH]/c2=N\c2ccc3nc(C)sc3c2)cc1 [Compound I-1470] | 10 nM
Cc1ccc(Cn2c(=O)n(C[C@H](C)C(=O)O)c(=O)[nH]/c2=N\c2ccc3nc(C)sc3c2)cc1 [Compound I-1473] | 12 nM
COC(=O)[C@@H](C)Cn1c(=O)[nH]/c(=N\c2cnc(Oc3ccccc3)c(Cl)c2)n(Cc2ccc(C)cc2)c1=O [Compound I-1474] | 138 nM
COC(=O)[C@@H](C)Cn1c(=O)[nH]/c(=N\c2cnc(OC3CCCC3)c(Cl)c2)n(Cc2ccc(C)cc2)c1=O [Compound I-1475] | 39 nM
